Data set [1] deals with peripheral blast / bone marrow blast. The protocol: The samples were then flash frozen in −70° C. A small number of patient samples were frozen unlysed and lysed afterwards.
Data set [2] is described as follows: AC220 phase I study, tolerability. Format: in vivo. To be noted: QD, patients of phase I study. From the text:
Thus, the pFLT3 ELISA of the invention successfully yielded useful pharmacodynamic data that not only guided the decision to change the dosing schedule from intermittent to continuous, but also guided the selection of the starting dose level for the 28-day continuous schedule, when information on dose limiting toxicity or maximum tolerated dose was still unavailable.

Read-outs that look alike come from different tables or passages of the source.

`CC(C)(C)c1cc(NC(=O)Nc2ccc(-c3cn4c(n3)sc3cc(OCCN5CCOCC5)ccc34)cc2)no1` [AC220]: the “bone marrow blast percentage” value in data set [1] (Patient A) is on record as “appeared to reduce bone marrow blast percentage”. The protocol defined response result in data set [1] (Patient D) is reported as “CRp/PR”; in data set [1] (Patient E), “CRi”. For the same compound, the maximum tolerated dose in data set [2] was > 300 mg per day.

For the origin of these results see patent publication US20110275094A1, “PHOSPHORYLATED FMS-RELATED TYROSINE KINASE 3 BIOMARKER ASSAY” (priority 2008, published 2011).
